Experimental data: ChEMBL document CHEMBL1151801, “Synthesis of new indeno[1,2-e]pyrimido[4,5-b][1,4]diazepine-5,11-diones as potential antitumor agents” (2008)
Calls of active or inactive are those of the source. The calls are words filed in the database; no cut-off is given here.

What follows are compounds tested on NCI60 (assay: Antitumor activity against human NCI60 cells at 1 uM).
Format: functional, cell-based
In the case of `CSc1nc2c(c(=O)n1C)NC1=C(C(=O)c3ccccc31)C(c1ccccc1)N2` (stereo not given), the Activity is reported as “inactive”. In the case of `COc1ccc(C2Nc3nc(SC)[nH]c(=O)c3NC3=C2C(=O)c2ccccc23)cc1` (stereo not given), the Activity is reported as “inactive”. In the case of `COc1nc2c(c(=O)n1C)NC1=C(C(=O)c3ccccc31)C(c1ccccc1)N2` (stereo not given), the Activity is reported as “inactive”. With `COc1ccc(C2Nc3nc(SC)n(C)c(=O)c3NC3=C2C(=O)c2ccccc23)cc1` (stereo not given) the Activity was “inactive”. In the case of `COc1ccc(C2Nc3nc(OC)n(C)c(=O)c3NC3=C2C(=O)c2ccccc23)cc1` (stereo not given), the Activity is reported as “inactive”.
